In data set [1] the test system is coq null mutants. Particulars: for viability of coq null mutants: 200 μM fatty acid, plate dilution assay. As to the method:
FIG. 3. […] Yeast coq3, coq7 and coq9 null mutants were prepared in the W303 yeast genetic background (WT). Yeast strains were grown in YPD medium (1% Bacto-yeast extract, 2% Bacto-peptone, 2% dextrose) and harvested while in log phase growth (OD600 nm=0.1-1.0). Cells were washed twice with sterile water and resuspended in phosphate buffer (0.10 M sodium phosphate, pH 6.2, 0.2% dextrose) to an OD600 nm=0.2. Samples were removed and 1:5 serial dilutions starting at 0.20 OD/ml were plated on YPD plate medium, to provide a zero time untreated control (shown in top left panel). The designated fatty acids were added to 200 μM final concentration to 20 ml of yeast in phosphate buffer. At 2 h, 4 h, and 16 h samples were removed, 1:5 serial dilutions prepared, and spotted onto YPD plate medium. Pictures were taken after 2 days of growth at 30° C.
FIG. 4. […] The fatty acid sensitive assay was performed as described in FIG. 3, except that 100 μl aliquots were removed at 1, 2, and 4 h and, following dilution, spread onto YPD plates. Pictures were taken after 2 to 2.5 days, and the number of colonies counted.
Q-less yeast (coq mutants) provide an ideal system to assess in vivo autoxidation of fatty acids. Coenzyme Q (ubiquinone or Q) serves as a small lipophilic antioxidant as well as an electron shuttle in the respiratory chain of the mitochondrial inner membrane. Ten S. cerevisiae genes (COQ1-COQ10) are required for coenzyme Q biosynthesis and function, and the deletion of any results in respiratory deficiency (Tran U C, Clarke C F. Mitochondrion 2007; 7S,S62).
A plate dilution assay can be used to assess PUFA sensitivity. This assay can be performed by spotting serial five-fold dilutions of aliquots onto YPD plate media (FIG. 3). The sensitivity of the different strains can be observed by visual inspection of the density of cells in each spot.

Data set [2] is described as follows: Kinetics of the oxidation of mixtures of D2-LA and LA. Conditions: data not shown. The class given is physicochemical. As to the method:
FIG. 8. Dependence of the rate of oxidation of the mixture of LA and D2-LA in chlorobenzene solution on mixture composition. Conditions: [LA]+[11,11-d2-LA]=0.775 M; [AMVN]=0.0217 M; 37° C. RIN=(1.10±0.08)×10^−7 M/sec.
To simulate the likely in vivo conditions, the kinetics of the oxidation of the mixtures of D2-LA and LA were studied (FIG. 8). In the experiments, the concentration of LA plus 11,11-d2-LA was 0.775 M; the concentration of AMVN was 0.0217 M; and the reactions were carried out at 37° C. The results afforded an RIN of 1.10±0.08×10^−7 M/sec.

Data set [3] in a line: Kinetics of oxygen consumption during oxidation in chlorobenzene initiated by AMVN. In kind it is physicochemical. As to the method: FIG. 7. Kinetics of O2 consumption accompanied the oxidation of 0.71 M LA (plots 1 and 2) and 0.71 M D2-LA (plot 3) in chlorobenzene initiated by 40 mM AMVN at 37° C. Plot 2—0.23 mM HPMC was added to 0.71 M LA.
The kinetics of oxygen consumption during the oxidation of LA and D2-LA was studied with a glass capillary microvolumeter (FIG. 7). The rate of oxidation, ROX, was measured as a slope of [O2] traces. The rate of initiation, RIN, was determined by the inhibitor method with HPMC (“6-hydroxy-2,2,5,7,8-pentamethylbenzochroman”) as a reference inhibitor. RIN was calculated from the induction period of inhibited oxidation, tIND: RIN=2·[HPMC]/tIND. […] When the process was inhibited by 0.23 mM chain-breaking antioxidant HPMC, the duration of the induction period, tIND, was about 48 min, with the RIN value of around 0.16×10^−6 M/s. […] The latter precludes a direct determination of RIN. […] An estimated kinetic isotope effect (“KIE”), from comparison of ROX for LA and D2-LA, was around 6.1×10^−6/0.18×10^−6≈35. A similar KIE was determined during the oxidation of LA and 11,11-d2-LA in Triton X-100 aqueous micelles (data not shown). For comparative purposes, the theoretical KIE is 6.9 at 25° C. See Carpenter, “Determination of Organic Reaction Mechanisms” (John Wiley & Sons, 1984), p. 89.

The next data set has as its system Wild-type yeast. Conditions: 200 μM fatty acid, 4 h incubation.
The subject of data set [4] is coq null mutants. Conditions: four hour treatment; cited from earlier work.
For data set [5], the system named is wild-type (strain W303-1B) cells. Conditions: four hour treatment; cited from earlier work.

Description for Wild-type yeast: Uptake of exogenously supplied fatty acids by yeast. WT (W303) yeast were harvested at log phase and incubated in the presence of 200 μM of the designated fatty acid for either 0 or 4 h.
Wild-type yeast were harvested during log phase growth and incubated in the presence of exogenously added fatty acid (for 0 or 4 h) in the presence of phosphate buffer plus 0.20% dextrose, as described for the fatty acid sensitivity assay. Cells were harvested, washed twice with 10 ml sterile water, and the yeast cell pellets were then processed by alkaline methanolysis as described above. The fatty acids are detected as methylesters (FAMEs) following GC-MS with C17:0 added as an internal standard (FIG. 6). The amounts of 18:3 and D4 detected after 4 h incubation were extrapolated from the calibration curve.

For `[2H]C([2H])(/C=C\C/C=C\CC)C/C=C\CCCCCCC(=O)O` [11,11-D2-linolenic acid, 11,11-Dideutero-cis,cis,cis-octadeca-8,12,15-trienoic acid], the “protection in the yeast model” value with coq null mutants [1] is “comparable protection”.
Same read-out and setting: the same measure for `[2H]C([2H])(/C=C\CC)/C=C\CC/C=C\CCCCCCC(=O)O` [14,14-D2-linolenic acid, 14,14-Dideutero-cis,cis,cis-octadeca-8,12,15-trienoic acid]: “comparable protection”.
`[2H]C([2H])(/C=C\CCCCC)/C=C\CCCCCCCC(=O)O` [D2-LA, 11,11-Dideutero-cis,cis-octadeca-9,12-dienoic acid]: the “effect on oxidation of mixture with non-deuterated methyl linoleate” value in data set [2] is listed as “qualititatively similar effect”. In data set [3], the “effect of addition of HPMC” value is “did not result in the decrease in ROX and the appearance of any detectable induction period”; the “length of the kinetic chain v=ROX/RIN” value is “≈ 1.1”.
For `[2H]C([2H])(/C=C\CC)/C=C\C([2H])([2H])/C=C\CCCCCCCC(=O)O` [D4-linolenic acid, 11,11,14,14-Tetradeutero-cis,cis,cis-octadeca-8,12,15-trienoic acid], the incorporation by yeast result in the data set with Wild-type yeast is “avidly incorporate”. Besides, the “viability of coq null mutants” value with coq null mutants [1] is on record as “not killed”. Also, in the data set on coq null mutants [1] (quantitative colony counting), the “viability of treated cells compared with oleic” value was “similar”.
For `CCCCC/C=C\C/C=C\CCCCCCCC(=O)O` [LA, (9Z,12Z)-9,12-Octadecadienoic acid, reference compound], in data set [3], the “length of the kinetic chain v=ROX/RIN” value amounted to 38±3.
Consider `CC/C=C\C/C=C\C/C=C\CCCCCCCC(=O)O` [linolenic acid, (9Z,12Z,15Z)-9,12,15-Octadecatrienoic acid, reference compound], for which, in the data set with Wild-type yeast, the incorporation by yeast result is reported as “avidly incorporate”. For the same compound, in the data set with coq null mutants [4], the “Q-less (coq2, coq3, and coq5) yeast mutants viable following treatment” value is given as “Less than 1%”. The “wild-type cells remaining viable” value in data set [5] was 70%. In the data set with coq null mutants [1], the “viability of coq null mutants” value is reported as “dramatic loss of viability”.

(Values after patent US10154983B2, “Neurodegenerative disorders and muscle diseases implicating PUFAs” (Retrotope, Inc., priority 2011, dated 2018).)
